Reference: patent US20140065226A1, “THERMO-RESPONSIVE HYDROGEL COMPOSITIONS” (priority 2011, published 2014)
Values joined by “and” are separate entries in the source; they are usually repeats but may differ in a detail not shown here. Equal entries are not always repeated. Structures can show the parent of a compound that is named as a salt. Where two headings read alike, the source gives them in different places.

Legend:
[1] = for release from pure thermo-responsive hydrogels: previous tests
Experimental: Drug release was carried out in PBS at 37° C. […] Drug release samples were taken at predetermined time intervals and tested for anti-proliferative activity with fibroblast MTS assay as described previously. Briefly, 3T3 fibroblast cells were seeded in 96-well plates as 5000 cells/well. After cells were grown to semiconfluence, growth was arrested by washing plates with PBS and then adding low serum medium with DMEM, 0.5% (v/v) FBS and 1% (v/v) penicillin/streptomycin mixture. Growth arrest was maintained for 24 hours. The cell cycle synchronized cells were then re-stimulated to enter G1 phase by changing back to growth medium. […] PBS was added to growth medium as control group.
To quantify the size distribution of nanospheres, the suspension was sampled and serially filtered through 0.45 μm, 0.22 μm, and 0.1 μm filters. The drug concentration after each filtration was quantified and calculated within each nanosphere size distribution. Nanospheres with size >100 nm in diameter were harvested by ultrafiltration and centrifugation. The harvested nanospheres were washed twice with DI water to remove excess PVA. The resultant nanosphere suspension was immersed in fresh PBS at 37° C. to initiate release. […] The release samples were taken continuously for 1 day. All samples were quantified for 3H concentration using a scintillation counter. Each experiment was conducted in triplicate.
The samples were taken continuously for the first 24 hours. The drug concentration was measured spectrophotometrically at 240 nm.

[2] = oil: methylene chloride + methanol

Row | Compound | release from free nanospheres ([1]; PBS, 37° C.) | release from nanospheres loaded hydrogels ([1]; PBS, 37° C.) | release from pure thermo-responsive hydrogels ([1]; after the first two hours) | drug release from PLGA nanospheres ([1]; within 24 hours, 37° C., PBS, disodium salt) | release from pure thermo-responsive hydrogels ([1]; within the first two hours) [%] | P (oil/water) ([2]; water: 0.2% PVA) | P (oil/water) ([2]; water: 2% PVA) | P (oil/water) ([2]; water: 2% PVA + 0.25N (NH4)2SO4) | P (oil/water) ([2]; water: 2% PVA + 0.5N NaCl)
1 | C[C@@H]1C[C@H]2[C@@H]3CCC4=CC(=O)C=C[C@]4(C)[C@@]3(F)[C@@H](O)C[C@]2(C)[C@@]1(O)C(=O)COP(=O)(O)O [Dexamethasone sodium phosphate, Dexamethasone 21-phosphate disodium salt] | sustained release over 24 hours | sustained release over 24 hours | less than 10% | > 90% and ~90% | ~90 | 0.06 | 0.15 | 0.86 | 0.26
2 | [3H]C1=C([3H])[C@@]2(C)C(=C([3H])C1=O)CC[C@H]1[C@@H]3C[C@@H](C)[C@](O)(C(=O)CO)[C@@]3(C)C[C@H](O)[C@@]12F [[1,2,4-^3H]dexamethasone, [1,2,4-^3H]dexamethasone] |  |  |  |  |  | 2.93 |  |  | 
